Series [1] in a line: The drug is tested on Z-029 corresponding to rat gut metagenome with ENA study accession number: PRJEB37062 and ENA sample accession number: ERS12561828 for biotransformation under anaerobic condition. The drug concentrations were measured over 9 timepoints collected between 0 and 24 hours of incubation by liquid-chromatography-coupled mass spectrometry (LC–MS). Particulars: 2 µM.

The nature of series [2]: The drug is tested on Z-028 corresponding to mouse gut metagenome with ENA study accession number: PRJEB37062 and ENA sample accession number: ERS12561827 for biotransformation under anaerobic condition. The drug concentrations were measured over 9 timepoints collected between 0 and 24 hours of incubation by liquid-chromatography-coupled mass spectrometry (LC–MS). Particulars: 2 µM.

Series [3] in a line: The drug is tested on Z-026 corresponding to metagenome with ENA study accession number: PRJEB37062 and ENA sample accession number: ERS12561825 for biotransformation under anaerobic condition. The drug concentrations were measured over 9 timepoints collected between 0 and 24 hours of incubation by liquid-chromatography-coupled mass spectrometry (LC–MS). Particulars: 2 µM.
The nature of series [4]: The drug is tested on Z-019 corresponding to rat gut metagenome with ENA study accession number: PRJEB37062 and ENA sample accession number: ERS12561818 for biotransformation under anaerobic condition. The drug concentrations were measured over 9 timepoints collected between 0 and 24 hours of incubation by liquid-chromatography-coupled mass spectrometry (LC–MS). Particulars: 2 µM.

Series [5] can be described thus: The drug is tested on Z-017 corresponding to mouse gut metagenome with ENA study accession number: PRJEB37062 and ENA sample accession number: ERS12561816 for biotransformation under anaerobic condition. The drug concentrations were measured over 9 timepoints collected between 0 and 24 hours of incubation by liquid-chromatography-coupled mass spectrometry (LC–MS). Particulars: 2 µM.

Series [6] is described as follows: The drug is tested on Z-016 corresponding to mouse gut metagenome with ENA study accession number: PRJEB37062 and ENA sample accession number: ERS12561815 for biotransformation under anaerobic condition. The drug concentrations were measured over 9 timepoints collected between 0 and 24 hours of incubation by liquid-chromatography-coupled mass spectrometry (LC–MS). Particulars: 2 µM.

The nature of series [7]: The drug is tested on Z-014 corresponding to rat gut metagenome with ENA study accession number: PRJEB37062 and ENA sample accession number: ERS12561814 for biotransformation under anaerobic condition. The drug concentrations were measured over 9 timepoints collected between 0 and 24 hours of incubation by liquid-chromatography-coupled mass spectrometry (LC–MS). Particulars: 2 µM.

Series [8] can be described thus: The drug is tested on Z-008 corresponding to metagenome with ENA study accession number: PRJEB37062 and ENA sample accession number: ERS12561808 for biotransformation under anaerobic condition. The drug concentrations were measured over 9 timepoints collected between 0 and 24 hours of incubation by liquid-chromatography-coupled mass spectrometry (LC–MS). Particulars: 2 µM.

Series [9] is described as follows: The drug is tested on Z-001 corresponding to mouse gut metagenome with ENA study accession number: PRJEB37062 and ENA sample accession number: ERS12561801 for biotransformation under anaerobic condition. The drug concentrations were measured over 9 timepoints collected between 0 and 24 hours of incubation by liquid-chromatography-coupled mass spectrometry (LC–MS). Particulars: 2 µM.

A short description of series [10]: The drug is tested on WLS-310 corresponding to human gut metagenome with ENA study accession number: PRJEB37062 and ENA sample accession number: ERS12561785 for biotransformation under anaerobic condition. The drug concentrations were measured over 9 timepoints collected between 0 and 24 hours of incubation by liquid-chromatography-coupled mass spectrometry (LC–MS). Particulars: 2 µM.

The nature of series [11]: The drug is tested on WLS-010 corresponding to human gut metagenome with ENA study accession number: PRJEB37062 and ENA sample accession number: ERS12561743 for biotransformation under anaerobic condition. The drug concentrations were measured over 9 timepoints collected between 0 and 24 hours of incubation by liquid-chromatography-coupled mass spectrometry (LC–MS). Particulars: 2 µM.

Series [12] can be described thus: The drug is tested on WLS-007 corresponding to human gut metagenome with ENA study accession number: PRJEB37062 and ENA sample accession number: ERS12561742 for biotransformation under anaerobic condition. The drug concentrations were measured over 9 timepoints collected between 0 and 24 hours of incubation by liquid-chromatography-coupled mass spectrometry (LC–MS). Particulars: 2 µM.

The conditions of series [13]: human gut metagenome, 24 h, 2 µM.
The conditions of series [14]: human gut metagenome, 24 h, 2 µM. This is another data set of the same source.
The conditions of series [15]: human gut metagenome, 24 h, 2 µM. The source holds these as a separate data set.
The conditions of series [16]: human gut metagenome, 24 h, 2 µM. This is another data set of the same source.
For series [17] the following is noted: human gut metagenome, 24 h, 2 µM. The source holds these as a separate data set.
The conditions of series [18]: human gut metagenome, 24 h, 2 µM. The source holds these as a separate data set.
The conditions of series [19]: human gut metagenome, 24 h, 2 µM. This is another data set of the same source.
For series [20] the following is noted: human gut metagenome, 24 h, 2 µM. This is another data set of the same source.
Further: call rule not given here.

For `COc1ccccc1OCC(O)CN1CCN(CC(=O)Nc2c(C)cccc2C)CC1` (stereo not given) [RANOLAZINE], the “Bacterial Biotransformation” value in [1], in [2], in series [3], in series [4], in [5] and in series [6] was “Compound NOT metabolized” throughout. Further, the “Bacterial Biotransformation” value in [7], in [8], in series [9], in series [10], in [11] and in [12] was “Compound NOT metabolized” in each case. The “Bacterial Biotransformation” value in [13], in series [14], in series [15], in series [16], in [17] and in series [18] was “Compound NOT metabolized” in each case. Further, the “Bacterial Biotransformation” value in [19] and in series [20] was “Compound NOT metabolized” each time.

For the compound `Cc1nc2n(c(=O)c1CCN1CCC(c3noc4cc(F)ccc34)CC1)CCCC2` [RISPERIDONE], the “Bacterial Biotransformation” value in [1] is given as “Compound NOT metabolized”; in series [2], “Compound metabolized”; in series [3] it was “Compound NOT metabolized”; in series [4], “Compound NOT metabolized”; in series [5] it was “Compound metabolized”; in series [6], “Compound metabolized”. In addition, the “Bacterial Biotransformation” value in series [7], in series [8], in series [9], in [10], in [11] and in series [12] was “Compound metabolized” in each case. Further, the “Bacterial Biotransformation” value in series [13] is “Compound metabolized”; in series [14], “Compound metabolized”; in series [15], “Compound metabolized”; in series [16], “Compound metabolized”; in [17], “Compound metabolized”; in series [18], “Compound NOT metabolized”. Moreover, the “Bacterial Biotransformation” value in [19] and in series [20] was “Compound metabolized” each time.

Consider `CCCc1nn(C)c2c(=O)[nH]c(-c3cc(S(=O)(=O)N4CCN(C)CC4)ccc3OCC)nc12.O=C(O)CC(O)(CC(=O)O)C(=O)O` [SILDENAFIL CITRATE], for which the “Bacterial Biotransformation” value in [1], in [2], in series [3], in [4], in series [5] and in [6] was “Compound NOT metabolized” in each case. Also, the “Bacterial Biotransformation” value is listed as “Compound NOT metabolized” in series [7]; “Compound NOT metabolized” in [8]; “Compound NOT metabolized” in [9]; “Compound metabolized” in series [10]; “Compound NOT metabolized” in [11]; “Compound NOT metabolized” in series [12]. Besides, the “Bacterial Biotransformation” value in series [13], in [14], in series [15], in [16], in [17] and in [18] was “Compound NOT metabolized” throughout. Also, the “Bacterial Biotransformation” value is given as “Compound NOT metabolized” in series [19] and “Compound metabolized” in series [20].

For the origin of these results see ChEMBL document CHEMBL5724914, “Linking interpersonal differences in gut microbiota composition and drug biotransformation activity” (2024).
